Several values for one entry are separate records, joined by “and”; a condition that tells them apart may be missing. Identical values can stand only once.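 Growth conditions: 96-well plates. Treatment: test compound, 48 hours, 5 concentrations. Analysis: linear interpolation between bracketing concentrations; unreached endpoints set to highest concentration. GI50 marks 50% less growth. TGI: concentration producing complete growth inhibition.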
Legend:
Test in all cases: DTP human tumour cell line panel, 48 h
HT29 colon = tested on: HT29 colon
KM12 colon = tested on: KM12 colon
UACC-257 melanoma = tested on: UACC-257 melanoma
OVCAR-3 ovarian = tested on: OVCAR-3 ovarian
HS 578T breast = tested on: HS 578T breast
SK-MEL-28 melanoma = tested on: SK-MEL-28 melanoma
NCI-H226 lung = tested on: NCI-H226 lung
OVCAR-8 ovarian = tested on: OVCAR-8 ovarian
A549 NSCLC = tested on: A549 NSCLC
T-47D breast = tested on: T-47D breast

| Structure (SMILES) | GI50 (HT29 colon) [µM] | TGI (HT29 colon) [µM] | GI50 (KM12 colon) [µM] | TGI (KM12 colon) [µM] | GI50 (UACC-257 melanoma) [µM] | TGI (UACC-257 melanoma) | GI50 (OVCAR-3 ovarian) [µM] | TGI (OVCAR-3 ovarian) | GI50 (HS 578T breast) [µM] | TGI (HS 578T breast) | GI50 (SK-MEL-28 melanoma) [µM] | TGI (SK-MEL-28 melanoma) [µM] | GI50 (NCI-H226 lung) [µM] | TGI (NCI-H226 lung) [µM] | GI50 (OVCAR-8 ovarian) [µM] | TGI (OVCAR-8 ovarian) | GI50 (A549 NSCLC) [µM] | TGI (A549 NSCLC) [µM] | GI50 (T-47D breast) [µM] | TGI (T-47D breast) [µM] |
| --- | --- | --- | --- | --- | --- | --- | --- | --- | --- | --- | --- | --- | --- | --- | --- | --- | --- | --- | --- | --- |
| CC(C)(C)OC(=O)n1cc(CNC(=S)Nc2ccccc2)c2ccccc21 | 22.3 | > 100 | 5.34 | 18.4 | 10.9 | 30.5 µM | 11.7 | 27.7 µM | 13.7 | 42.2 µM | 27.4 | 95.3 | 14.3 | 30.7 | 16.9 | 35.4 µM | 10.6 | 33.1 | – | – |
| O=C(CCN1CCN(c2cnc3ccccc3n2)CC1)c1csc2ccccc12 | 38.4 | > 100 | 33.5 | > 100 | > 100 | > 100 µM | 25 | 61.5 µM | 43.6 | > 100 µM | 20 | 42.7 | 35.7 | > 100 | > 100 | > 100 µM | – | – | 18.2 | 43.4 |
| CCOC(=O)C1=C(C)Nc2ccccc2S1 | – | > 100 | – | > 100 | – | > 100 µM | – | > 100 µM | – | – | – | > 100 | – | > 100 | – | – | – | > 100 | – | – |
| O=C(/C=C/c1ccc(Cl)cc1)c1ccc(Cl)cc1Cl | – | – | 5.73 | 13.8 | 10.4 | 18.5 µM | 9.19 | 18.4 µM | 11.7 | 25.9 µM | – | – | 9.41 | 18.1 | 8.65 | 21.5 µM | 8.63 | 17.5 | 3.25 | 22.3 |
| N#Cc1c(-c2cccs2)c2c(=S)[nH]c(=S)[nH]c2[nH]c1=S | – | – | 28.6 | > 100 | 18 | 81.3 µM | 34.5 | 98.8 µM | 53.7 | 90.3 µM | 22.4 | > 100 | 37.2 | > 100 | – | – | 28.9 | > 100 | 28.1 | 98.8 |
| COc1ccc(C(=O)Nc2ncc(Cc3ccc(Cl)cc3)s2)cc1 | 0.0396 | > 100 | 0.0373 | > 37.1 | 20 | > 100 µM | 0.0327 | 0.159 µM | 0.0407 | > 77 µM | 2.12 | > 100 | 0.0771 | > 64.3 | 0.117 | > 100 µM | 0.0733 | > 100 | – | – |
| FC(F)(F)c1nc(-c2ccccc2Cl)[nH]c1C(F)(F)F | – | 4.22 | – | 4.13 | – | 2.2 µM | – | 3.68 µM | – | – | – | 5.32 | – | 3.54 | – | 6.14 µM | – | 3.06 | – | – |
| C#CCNC(=O)NC(CCCNC(=O)OCc1ccccc1)C(=O)OCc1ccccc1 (configuration not stated) | – | > 100 | – | > 100 | – | 93.3 µM | – | > 100 µM | – | – | – | > 100 | – | > 100 | – | > 100 µM | – | > 100 | – | – |
| COc1ccc2cc1Oc1ccc(cc1)C[C@H]1c3cc(c(OC)cc3CCN1C)Oc1c(OC)c(OC)cc3c1[C@H](C2)N(C)CC3 | – | – | – | – | 4.06 | 11.4 µM and 14.6 µM and > 100 µM | 11.8 | 15.7 µM and 28.7 µM | 13.1 | 19.1 µM and 28.2 µM and > 100 µM | – | – | – | – | 6.53 | 16.3 µM and 19.2 µM and > 100 µM | – | – | – | – |
